Measurements taken from patent publication US20190262343A1, “WOUND HEALING USING BRAF INHIBITORS” (THE REGENTS OF THE UNIVERSITY OF CALIFORNIA, priority 2016, published 2019).

Test system: PECAM-1+ cells
Experiment: Immunohistochemistry of excisional wounds (PECAM-1)
Assay type: in vivo, mice
Conditions: excisional wound model, day 6; p=0.006
Text: Dorsal skin wounds from CH3 mice treated with vemurafenib suspension or DMSO in saline control suspension were excised at day 2, 6 and 14. They were fixed in 10% neutral buffered formalin and embedded in paraffin and stained with hematoxylin and eosin (H&E) using standard methods. Balb/c mice were sacrificed at day 2, 6 and 14 with isoflurane overdose. Two 8-mm round pieces of tissue were collected from each Balbc/c mouse containing the whole wound area and the surrounding tissue and skin, cut precisely in half at the midline of the wound and fixed in 1% paraformaldehyde (PFA) for 16-18 hours at 4° C., dehydrated in 70% EtOH, and then paraffin embedded. Sections were cut at 4 μm, deparaffinized with xylene and descendant ethanol, and then incubated in 3% H2O2 for 10 minutes. […] The imaging and quantification of the cell-based immunohistochemistry, was performed with the HALO Next Generation Imaging analysis software (Indica Labs; Corrales, N. Mex.). […] The number of pERK+, Ki67+ and PECAM-1+ cells was automatically counted with the HALO software. Three 20× fields of view from each side of the wound were automatically counted for pERK and Ki67 stains. PECAM-1+ and CD68+ cells were automatically counted on each side of the wound edges where the granulation tissue starts (1 mm length each side) on the excisional wound splinting model, and in the entire wound area on the incisional wound model. […]

Compound: CCCS(=O)(=O)Nc1ccc(F)c(C(=O)c2c[nH]c3ncc(-c4ccc(Cl)cc4)cc23)c1F [vemurafenib]
- increase in the number of PECAM-1+ cells compared to control wounds: 74%
